Source: patent publication US20170368134A1, “PROTEASOME INHIBITORS FOR TREATING A DISORDER RELATED TO AN ACCUMULATION OF NON-DEGRADED ABNORMAL PROTEIN OR A CANCER” (UNIVERSITÉ D'AIX-MARSEILLE, priority 2015, published 2017)
Peptide text beside a SMILES is read from it. * marks the point of attachment. Cbz = O=C(OCc1ccccc1)*

Legend:
SRSF-1 [1] = assay: Western blot of SRSF-1 in HGPS fibroblasts; type: cell-based, human; conditions: 48 h treatment of HGPS fibroblasts with MG132 (10 μM)
Method: Total fibroblast proteins were extracted in 200 μL of NP40 Cell Lysis buffer (Invitrogen, Carlsbad, Calif.) containing Protease and Phosphatase Inhibitor Cocktail (Thermo Scientific). Alternatively, cells were lysed with urea (8 M urea, 5 mM dithiothreitol, 150 mM NaCl, 50 mM Tris-Cl pH 7.5, protease and phosphatase Inhibitor Cocktail (Thermo Scientific)). Cells were sonicated twice (30 sec each), incubated at 4° C. for 30 minutes and then centrifuged at 10,000 g for 10 minutes. Protein concentration was evaluated with the bicinchoninic acid technique (Pierce BCA Protein Assay Kit), absorbance at 562 nm is measured using nanodrop 1000 (Thermo Fisher Scientific Inc.) Equal amounts of proteins (40 μg) were loaded onto 10% Tis-Glycine gel (Criterion™ XT precast gel) using XT Tricine running Buffer (Biorad, USA). After electrophoresis, gels were electro transferred onto nitrocellulose membranes or Immobilon-FL polyvinylidene fluoride membranes (Millipore), blocked in Odyssey Blocking Buffer diluted 1:1 in PBS for 1 hour at room temperature, and incubated overnight at 4° C. or 2 hours at room temperature with various primary antibodies. Blots were washed with TBS-T buffer [20 mM tris (pH 7.4), 150 mM NaCl, and 0.05% Tween 20] and incubated with 1:10,000 IR-Dye 800-conjugated secondary donkey anti-goat or IR-Dye 700-conjugated secondary anti-mouse antibodies (LI-COR Biosciences) in Odyssey blocking buffer (LI-COR Biosciences). For IR-Dye 800 and IR-Dye 700 detection, an Odyssey Infrared Imaging System (LI-COR Biosciences) was used. GAPDH, α-tubulin or β-actin were used as a total cellular protein loading control.

[2] = system: wild-type first instar larvae; assay: Toxicity of MG132 fed to Drosophila larvae; type: in vivo; conditions: 600 μM MG132 (in 0.2% DMSO) in the fly medium, 25° C.
Method: (A) The toxicity of MG132 fed to larvae was determined by transferring 80 wild-type first instar larvae into vials containing 5 ml of instant Drosophila medium reconstituted either with increasing concentrations of drug in DMSO, or DMSO alone.
Drug supplemented food was prepared as follows. Instant Drosophila medium (Carolina Biological Supply Company) was reconstituted in each vial with a solution of 1% yeast in water, supplemented with either increasing concentrations of drug solubilized in DMSO (dimethyl sulfoxide), or DMSO alone. MG132 was purchased from Santa Cruz Biotechnology (SC-201270). Each vial contained 5 ml or 2.5 ml of reconstituted medium, to raise larvae or adults, respectively. Individuals were fed with the drug from larval stages. 70 to 80 first instar larvae were transferred per vial and developed in the same vial up to adulthood; adults were transferred in a new vial with the same concentration of drug. To determine drug toxicity, 80 first instar larvae were transferred into vials containing drug- or DMSO alone-supplemented medium. Individuals reaching adulthood were scored. Abnormal wing posture was quantified by collecting adult males at birth, pooling five males per vial and scoring abnormal wing position each day by direct observation of the flies through the vials, without anesthesia.

progerin = assay: Progerin levels in HGPS iPS-derived MSC and VSMC; type: cell-based, human; conditions: data not shown
Method: (§1) Generation of induced pluripotent stem cells (iPS) by reprogramming was carried out using fibroblasts isolated from HGPS patient biopsies performed in the Assistance Publique Hopitaux de Marseille (13-8243) or provided by Coriell Institute (Camden, USA) (AG01972). Cell lines were reprogrammed to iPSC using Yamanaka's original method based on retrovirus-mediated transfection of four transcription factors, namely Oct3/4, Sox2, c-Myc, and Klf4 (41). The iPSC lines were amplified up to the 15th passage before differentiation.
(§2) HGPS iPSC were grown on STO mouse fibroblasts, inactivated with […] mitomycin C, seeded at 30,000/cm2 and grown as previously described (42). For differentiation, iPSC were differentiated into mesenchymal stem cells (MSC-iPSC) using directed protocols for differentiation previously published (43-45). VSMC were obtained from iPSC by fluorescent-activated cell sorting (FACS) separation of CD31+ cells (46).
To determine whether MG132 also influences the level of progerin in other cell lineages, the inventors generated iPSC from HGPS patients' fibroblasts. Mesenchymal Stem Cells (MSC) and Vascular Smooth Muscle Cells (VSMC) derived from HGPS iPSC presented the commonly described abnormalities of HGPS fibroblasts, namely, loss of proliferation capacities, premature senescence and nuclear blebbing (69, 70). […]

SRSF-1 [3] = assay: SRSF-1 levels in HGPS fibroblasts, iPS-MSC and iPS-VSMC; type: cell-based, human; conditions: data not shown
Method: as §1, §2

lamin C mRNA = assay: qRT-PCR of lamin C transcripts in HGPS cells; type: cell-based, human; conditions: 10 μM MG132 time-course
Method: Total RNA was isolated using the RNeasy plus extraction kit (Qiagen, Valencia, Calif.). 1 μg of RNA was reverse transcribed using the High Capacity cDNA Reverse Transcription Kit (Applied Biosystems). Real time PCR amplification was carried out with the TaqMan® Gene Expression Master Mix (Applied Biosystems) on a LightCycler 480 (Roche, Germany) using pre-designed primers for GAPDH (Hs00266705_g1), Progerin (F: […] (SEQ ID NO:3) R: […] (SEQ ID NO:4) and probe: […] (SEQ ID NO:5)), Lamin A (F: […] (SEQ ID NO:6) R: […] (SEQ ID NO:7) and probe: […] (SEQ ID NO:8)) and lamin C (F: […] (SEQ ID NO:9) R: […] (SEQ ID NO:10) and probe: […] (SEQ ID NO:11)) (Applied Biosystems) using the program: UNG incubation at 50° C. for 2 minutes, initial denaturation at 95° C. for 10 minutes, 40 cycles of amplification: denaturation at 95° C. for 15 seconds and annealing at 60° C. for 1 minute. All PCR reactions were performed in triplicate. Threshold cycle (Ct) values were used to calculate relative mRNA expression by the 2-ΔΔ^T relative quantification method with normalization to GAPDH expression.

CC(C)C[C@@H](C=O)NC(=O)[C@H](CC(C)C)NC(=O)[C@H](CC(C)C)NC(=O)OCc1ccccc1 [MG132, Z-Leu-Leu-Leu-al] (Cbz-Leu-Leu-Leu-aldehyde)
SRSF-1 levels (SRSF-1 [1]): significant decrease of SRSF-1 levels | viability (flies reaching adulthood) [2]: not detrimental for viability | progerin levels (progerin; HGPS fibroblasts, iPS-MSC and iPS-VSMC): decreased | concentration from which progerin reduction is significant (progerin; iPS-VSMC, progerin immunostaining): ≥ 1.25 µM | SRSF-1 levels (SRSF-1 [3]): decreased | lamin C transcript levels (lamin C mRNA): much less pronounced decrease of lamin C transcript levels
